Test results published in ChEMBL document CHEMBL5126517, “Structure-Activity Relationship in the Leucettine Family of Kinase Inhibitors” (J Med Chem, 2022).

Legend:
[1] = molecular target: Dual specificity protein kinase CLK2 (Mus musculus, UniProt O35491); assay: Inhibition of mouse recombinant GST-fused CLK2 expressed in Escherichia coli using GRSRSRSRSRSR peptide as substrate incubated for 30 mins in presence of ATP by scintillation counting method
[2] = molecular target: Dual specificity tyrosine-phosphorylation-regulated kinase 1B (Homo sapiens, UniProt Q9Y463)
[3] = Neurotoxicity against mouse HT-22 cells assessed as cell survival treated for 24 hrs by MTS assay; format: toxicity, cell-based
[4] = molecular target: Dual specificity protein kinase CLK1 (Mus musculus, UniProt P22518); assay: Inhibition of GST-fused mouse recombinant CLK1 expressed in Escherichia coli using GRSRSRSRSRSR peptide as substrate incubated for 30 mins in presence of ATP by scintillation counting method
[5] = molecular target: Dual specificity tyrosine-phosphorylation-regulated kinase 1A (Homo sapiens, UniProt Q13627); assay: Inhibition of GST-fused human recombinant DYRK1A expressed in Escherichia coli using GRSRSRSRSRSR peptide as substrate incubated for 30 mins in presence of ATP by scintillation counting method
[6] = molecular target: Dual specificity protein kinase CLK4 (Mus musculus, UniProt O35493); assay: Inhibition of GST-fused mouse recombinant CLK4 expressed in Escherichia coli using GRSRSRSRSRSR peptide as substrate incubated for 30 mins in presence of ATP by scintillation counting method
[7] = molecular target: Glycogen synthase kinase-3 (Sus scrofa, UniProt B2LUN4+I6LNT8); assay: Inhibition of porcine brain GSK-3alpha/beta using YRRAAVPPSPSLSRHSSPHQpSEDEEE as substrate incubated for 30 mins in presence of ATP by scintillation counting method; format: tissue-based
[8] = molecular target: T1, Dual specificity tyrosine-phosphorylation-regulated kinase 3 (Homo sapiens, UniProt O43781); assay: Inhibition of GST-fused human recombinant DYRK3 expressed in Escherichia coli using GRSRSRSRSRSR peptide as substrate incubated for 30 mins in presence of ATP by scintillation counting method
T1 sequence (O43781 whole entry): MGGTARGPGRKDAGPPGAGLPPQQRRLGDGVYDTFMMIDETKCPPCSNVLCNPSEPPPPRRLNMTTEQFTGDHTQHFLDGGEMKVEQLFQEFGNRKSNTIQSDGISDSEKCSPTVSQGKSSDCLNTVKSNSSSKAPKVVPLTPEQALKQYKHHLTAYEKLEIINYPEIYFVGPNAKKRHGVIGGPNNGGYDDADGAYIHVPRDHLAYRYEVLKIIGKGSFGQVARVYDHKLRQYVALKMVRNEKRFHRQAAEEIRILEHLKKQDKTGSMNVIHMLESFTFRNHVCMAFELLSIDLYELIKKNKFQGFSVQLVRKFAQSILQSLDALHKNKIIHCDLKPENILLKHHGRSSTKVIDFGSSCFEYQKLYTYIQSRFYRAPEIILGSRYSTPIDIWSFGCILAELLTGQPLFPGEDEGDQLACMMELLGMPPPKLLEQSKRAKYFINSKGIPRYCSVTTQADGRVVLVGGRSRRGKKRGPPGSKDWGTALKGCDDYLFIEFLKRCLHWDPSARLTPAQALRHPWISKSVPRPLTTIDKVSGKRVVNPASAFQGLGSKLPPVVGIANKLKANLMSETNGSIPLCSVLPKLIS

[9] = molecular target: T2, Dual specificity tyrosine-phosphorylation-regulated kinase 2 (Homo sapiens, UniProt Q92630); assay: Inhibition of GST-fused human recombinant DYRK2 expressed in Escherichia coli using GRSRSRSRSRSR peptide as substrate incubated for 30 mins in presence of ATP by scintillation counting method
T2 sequence (Q92630 whole entry): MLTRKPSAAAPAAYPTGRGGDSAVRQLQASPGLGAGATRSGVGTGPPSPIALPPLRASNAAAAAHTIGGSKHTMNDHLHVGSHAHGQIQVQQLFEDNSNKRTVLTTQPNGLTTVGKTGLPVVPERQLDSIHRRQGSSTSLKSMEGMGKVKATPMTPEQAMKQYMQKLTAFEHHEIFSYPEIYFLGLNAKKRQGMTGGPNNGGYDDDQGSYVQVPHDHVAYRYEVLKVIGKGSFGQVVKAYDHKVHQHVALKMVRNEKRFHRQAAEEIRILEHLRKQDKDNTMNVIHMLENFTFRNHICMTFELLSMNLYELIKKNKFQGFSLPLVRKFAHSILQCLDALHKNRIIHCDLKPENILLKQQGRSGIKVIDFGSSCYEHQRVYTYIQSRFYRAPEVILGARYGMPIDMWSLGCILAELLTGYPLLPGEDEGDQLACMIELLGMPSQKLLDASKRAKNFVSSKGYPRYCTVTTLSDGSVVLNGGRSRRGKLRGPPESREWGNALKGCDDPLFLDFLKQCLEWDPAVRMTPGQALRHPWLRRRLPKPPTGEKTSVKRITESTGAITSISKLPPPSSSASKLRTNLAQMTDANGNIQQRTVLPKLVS

[10] = molecular target: Dual specificity protein kinase CLK3 (Mus musculus, UniProt O35492); assay: Inhibition of GST-fused mouse recombinant CLK3 expressed in Escherichia coli using GRSRSRSRSRSR peptide as substrate incubated for 30 mins in presence of ATP by scintillation counting method
Cannabinoid receptor 1 = Cannabinoid receptor 1 (Homo sapiens, UniProt P21554); assay: Antagonist activity at CP-55940-activated CB1 receptor (unknown origin) at 10 uM by beta-arrestin assay relative to control; format: functional; parameters: scale not given: the % may be the effect or the level left
HT-22 [11] = assay: Modulation of CLK1 pre-mRNA splicing in mouse HT-22 cells assessed as inclusion of CLK1 exon 4 by measuring change in threshold cycle at 10 uM measured after 4 hrs by real time PCR analysis; format: cell-based; details: filed as modulator
U2OS = assay: Induction of PI3K/mTor-dependent autophagy in human U2OS cells assessed as number of LC3 foci per cell at 10 uM measured after 4 hrs; format: cell-based; details: filed as activator
[12] = molecular target: Serine/threonine-protein kinase pim-1 (Homo sapiens, UniProt P11309); assay: Inhibition of human recombinant Pim1 expressed in Escherichia coli using histone H1 as substrate incubated for 30 mins in presence of ATP by scintillation counting method
Casein kinase 2 = Casein kinase 2 (Homo sapiens, UniProt P67870+P68400+P19784+Q8NEV1); assay: Inhibition of human recombinant CK2 using RRRDDDSDDD peptide as substrate incubated for 30 mins in presence of ATP by scintillation counting method; format: protein assay
HT-22 [13] = assay: Neuroprotective activity against glutamate-induced cell death in mouse HT-22 cells treated for 24 hrs by MTS assay; format: functional, cell-based; details: HT-22, 24 h
[14] = Neurotoxicity against mouse HT-22 cells assessed as cell survival at 20 uM treated for 24 hrs by MTS assay; format: toxicity, cell-based; details: ht-22, 24 h

Chain of Dual specificity protein kinase CLK4 (O35493 whole entry, the tested form may be a part): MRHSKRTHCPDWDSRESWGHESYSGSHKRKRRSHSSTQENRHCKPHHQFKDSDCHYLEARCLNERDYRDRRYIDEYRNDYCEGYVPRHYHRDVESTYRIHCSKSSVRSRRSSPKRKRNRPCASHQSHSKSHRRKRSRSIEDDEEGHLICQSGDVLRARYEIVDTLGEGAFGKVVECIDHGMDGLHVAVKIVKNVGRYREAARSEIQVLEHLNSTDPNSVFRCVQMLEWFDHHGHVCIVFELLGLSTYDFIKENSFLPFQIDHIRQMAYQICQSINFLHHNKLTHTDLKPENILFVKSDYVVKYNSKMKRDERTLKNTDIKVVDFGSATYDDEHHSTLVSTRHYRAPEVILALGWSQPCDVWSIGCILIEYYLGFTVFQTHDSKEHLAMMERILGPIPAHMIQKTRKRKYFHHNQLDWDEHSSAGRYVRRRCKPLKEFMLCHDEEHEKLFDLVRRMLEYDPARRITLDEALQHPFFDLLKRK
Chain of Dual specificity protein kinase CLK3 (O35492 whole entry, the tested form may be a part): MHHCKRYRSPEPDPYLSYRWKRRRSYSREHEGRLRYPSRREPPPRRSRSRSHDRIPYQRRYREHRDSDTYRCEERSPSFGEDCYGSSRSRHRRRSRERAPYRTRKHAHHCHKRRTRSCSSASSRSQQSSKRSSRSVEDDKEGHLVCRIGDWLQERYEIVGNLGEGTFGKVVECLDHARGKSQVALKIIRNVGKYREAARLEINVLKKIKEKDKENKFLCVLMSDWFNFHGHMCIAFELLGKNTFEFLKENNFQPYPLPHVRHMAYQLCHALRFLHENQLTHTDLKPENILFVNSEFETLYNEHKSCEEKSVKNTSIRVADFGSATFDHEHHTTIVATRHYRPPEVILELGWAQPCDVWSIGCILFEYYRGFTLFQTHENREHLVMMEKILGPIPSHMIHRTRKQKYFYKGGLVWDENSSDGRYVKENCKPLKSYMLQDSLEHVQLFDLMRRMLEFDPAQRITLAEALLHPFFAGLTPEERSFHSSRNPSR
Chain of Dual specificity tyrosine-phosphorylation-regulated kinase 1B (Q9Y463 whole entry): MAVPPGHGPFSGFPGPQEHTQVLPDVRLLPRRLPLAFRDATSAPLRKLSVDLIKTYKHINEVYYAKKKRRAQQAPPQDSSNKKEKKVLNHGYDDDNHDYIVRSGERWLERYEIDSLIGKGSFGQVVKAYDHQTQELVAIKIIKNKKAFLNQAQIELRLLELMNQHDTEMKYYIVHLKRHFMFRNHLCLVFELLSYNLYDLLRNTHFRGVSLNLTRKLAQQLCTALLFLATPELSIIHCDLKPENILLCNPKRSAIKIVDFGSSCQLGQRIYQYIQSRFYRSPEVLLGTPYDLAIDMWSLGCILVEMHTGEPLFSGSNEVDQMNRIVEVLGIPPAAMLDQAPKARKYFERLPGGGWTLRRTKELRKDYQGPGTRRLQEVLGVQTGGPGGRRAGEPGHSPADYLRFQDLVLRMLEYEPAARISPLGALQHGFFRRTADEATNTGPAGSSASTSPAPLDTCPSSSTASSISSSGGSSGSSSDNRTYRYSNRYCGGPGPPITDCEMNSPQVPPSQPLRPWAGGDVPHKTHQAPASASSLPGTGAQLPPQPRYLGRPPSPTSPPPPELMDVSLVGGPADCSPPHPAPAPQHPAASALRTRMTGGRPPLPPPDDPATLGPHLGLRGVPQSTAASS
Chain of Dual specificity protein kinase CLK2 (O35491 whole entry, the tested form may be a part): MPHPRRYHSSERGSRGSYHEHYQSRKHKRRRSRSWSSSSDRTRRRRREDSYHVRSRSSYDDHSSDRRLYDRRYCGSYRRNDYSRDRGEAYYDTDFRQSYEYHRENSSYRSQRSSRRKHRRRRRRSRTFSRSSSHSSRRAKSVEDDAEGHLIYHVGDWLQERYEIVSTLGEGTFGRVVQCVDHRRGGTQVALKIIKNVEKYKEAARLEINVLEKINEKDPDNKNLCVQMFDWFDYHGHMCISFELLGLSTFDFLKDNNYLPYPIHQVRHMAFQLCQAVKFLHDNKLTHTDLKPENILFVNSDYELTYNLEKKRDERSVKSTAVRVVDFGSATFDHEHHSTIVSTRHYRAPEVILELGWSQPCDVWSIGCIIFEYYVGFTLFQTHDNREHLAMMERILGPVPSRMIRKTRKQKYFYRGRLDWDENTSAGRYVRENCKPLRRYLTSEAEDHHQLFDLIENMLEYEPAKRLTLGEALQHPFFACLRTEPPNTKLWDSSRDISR
Chain of Dual specificity protein kinase CLK1 (P22518 whole entry, the tested form may be a part): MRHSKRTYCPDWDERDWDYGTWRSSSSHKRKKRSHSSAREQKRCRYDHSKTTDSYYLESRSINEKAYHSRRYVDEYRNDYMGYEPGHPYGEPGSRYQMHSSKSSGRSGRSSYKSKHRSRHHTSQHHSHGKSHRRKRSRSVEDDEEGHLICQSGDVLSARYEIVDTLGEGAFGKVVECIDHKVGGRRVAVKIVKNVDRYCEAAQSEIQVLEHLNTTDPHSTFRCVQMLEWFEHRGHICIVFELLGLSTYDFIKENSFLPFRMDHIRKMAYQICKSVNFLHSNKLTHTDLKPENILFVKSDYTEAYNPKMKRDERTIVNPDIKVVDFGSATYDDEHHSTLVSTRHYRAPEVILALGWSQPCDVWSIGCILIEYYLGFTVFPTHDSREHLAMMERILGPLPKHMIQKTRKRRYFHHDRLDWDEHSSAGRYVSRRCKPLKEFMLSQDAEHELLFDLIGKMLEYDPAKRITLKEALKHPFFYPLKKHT
Chain of Serine/threonine-protein kinase pim-1 (P11309 whole entry): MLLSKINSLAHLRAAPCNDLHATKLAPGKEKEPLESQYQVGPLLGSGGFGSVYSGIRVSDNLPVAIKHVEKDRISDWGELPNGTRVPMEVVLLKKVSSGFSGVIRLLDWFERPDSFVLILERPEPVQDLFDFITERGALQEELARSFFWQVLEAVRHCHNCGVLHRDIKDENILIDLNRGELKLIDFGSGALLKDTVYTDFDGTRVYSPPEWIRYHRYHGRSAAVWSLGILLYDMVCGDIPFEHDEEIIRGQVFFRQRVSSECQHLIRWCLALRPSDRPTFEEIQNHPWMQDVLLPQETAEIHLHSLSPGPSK
Chain of Cannabinoid receptor 1 (P21554 whole entry): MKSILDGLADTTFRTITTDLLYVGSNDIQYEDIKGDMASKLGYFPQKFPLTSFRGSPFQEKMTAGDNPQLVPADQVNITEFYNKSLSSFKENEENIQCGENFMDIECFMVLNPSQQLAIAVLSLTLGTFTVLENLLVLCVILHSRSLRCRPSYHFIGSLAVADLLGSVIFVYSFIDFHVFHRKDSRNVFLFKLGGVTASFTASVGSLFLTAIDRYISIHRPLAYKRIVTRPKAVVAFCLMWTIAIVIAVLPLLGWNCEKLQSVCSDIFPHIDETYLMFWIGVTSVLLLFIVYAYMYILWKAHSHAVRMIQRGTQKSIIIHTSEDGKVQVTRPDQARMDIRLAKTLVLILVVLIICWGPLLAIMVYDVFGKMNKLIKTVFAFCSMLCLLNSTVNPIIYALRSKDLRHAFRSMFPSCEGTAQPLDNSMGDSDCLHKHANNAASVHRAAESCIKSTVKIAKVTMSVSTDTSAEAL

Row | Structure (SMILES) | IC50 [1] [µM] | IC50 [2] [µM] | EC50 at 24 h [3] [µM] | IC50 [4] [µM] | IC50 [5] [µM] | IC50 [6] [µM] | IC50 [7] [µM] | IC50 [8] [µM] | IC50 [9] [µM] | IC50 [10] [µM] | Activity (Cannabinoid receptor 1) [%] | IC50 at 24 h [3] [µM] | deltaCT (HT-22 [11]) | Activity (U2OS) | IC50 [12] [µM] | IC50 (Casein kinase 2) [µM] | EC50 (HT-22 [13]) [µM] | Activity [14] | Activity (Cannabinoid receptor 1; filed as antagonist) [%]
1 | O=C1NC(Nc2ccccc2)=NC1Cc1ccc2c(c1)OCO2 (stereo not given) | > 10 | > 10 | > 20 | 6.27 | 5.1 | 5.6 | > 10 | > 10 | > 10 | > 10 | – | – | – | – | – | – | – | – | –
2 | C/C(=C1/N=C(Nc2ccccc2)NC1=O)c1ccc2c(c1)OCO2 | > 10 | > 10 | – | ≥ 10 | 8.5 | 5.9 | – | – | 1.6 | > 10 | -42.1 | > 20 | 0.38 | 5.8 | – | – | – | – | –
3 | CN1C(=O)/C(=C/c2ccc3c(c2)OCO3)N=C1Nc1ccccc1 | 0.5 | 3.2 | – | 0.14 | 0.093 | 0.11 | 0.75 | 0.87 | 0.08 | 1.4 | -5.5 | – | 4.42 | 7.9 | ≥ 10 | > 10 | 14 | Non-Toxic | –
4 | Cc1ccc(NC2=N/C(=C\c3ccc4c(c3)OCO4)C(=O)N2)cc1 | 1 | 0.053 | – | 0.053 | 0.018 | 0.056 | 7.3 | 0.32 | 0.034 | – | – | – | 2.29 | 8.4 | 3.5 | 1.7 | 3.2 | Non-Toxic | 90.8
5 | COc1cccc(/C=C2\N=C(Nc3ccccc3)NC2=O)c1 | > 10 | – | > 20 | ≥ 10 | > 10 | 5 | – | – | > 10 | – | – | – | – | 5.7 | 3.1 | – | 7.2 | – | 71.9
6 | O=C1NC(Nc2ccccc2)=N/C1=C\c1ccc2c(c1)CCCO2 | 1.8 | 0.36 | – | 0.12 | 0.12 | 0.14 | > 10 | 0.42 | 0.12 | ≥ 10 | – | > 20 | – | 4.8 | 1.2 | 2.2 | 3.5 | – | 94
7 | CCCNC1=N/C(=C\c2ccc3c(c2)OCO3)C(=O)N1C | 0.56 | 0.55 | – | 0.11 | 0.46 | 0.12 | 1.4 | 1.2 | 0.095 | 2.5 | -15.8 | – | 3.72 | 6.8 | 3.2 | > 10 | > 20 | Non-Toxic | –
8 | CN(C1=N/C(=C\c2ccc3c(c2)OCO3)C(=O)N1)c1ccccc1 | 1.2 | 0.68 | > 20 | 0.31 | 0.38 | 0.13 | 6.2 | 1.8 | 0.32 | 2.6 | -9.1 | – | – | 4.7 | 2 | 2.1 | > 20 | – | –
9 | O=C1NC(N2CCN(c3ccc(F)cc3)CC2)=N/C1=C\c1ccc2c(c1)OCCO2 | 10 | ≥ 10 | – | 2.1 | 3.1 | 2.3 | 8.2 | 2.1 | 2.2 | > 10 | 16 | > 20 | – | 8.1 | 9.3 | – | 14 | – | –
10 | CN1CCN(c2ccc(NC3=N/C(=C\C4=COc5ccccc5O4)C(=O)N3)cc2)CC1 | 0.067 | 0.02 | – | 0.017 | 0.007 | 0.019 | 0.12 | 0.014 | 0.008 | 1.1 | -1.4 | > 20 | – | 22 | 0.51 | 0.45 | 12 | – | –
11 | Cc1ccc(NC2=N/C(=C\c3ccc4c(c3)OCO4)C(=O)N2)cc1C | 2.2 | 0.52 | > 20 | 0.28 | 0.13 | 0.16 | > 10 | 1.7 | 0.055 | > 10 | – | – | – | 6.6 | > 10 | > 10 | 2.7 | – | 51.7
12 | COc1ccc(/C=C2\N=C(Nc3ccccc3)NC2=O)cc1 | > 10 | 0.55 | – | 0.34 | 0.17 | 0.28 | – | 2.1 | 0.22 | – | – | > 20 | – | 5.8 | ≥ 10 | 2.1 | 5.3 | – | 92.2
13 | O=C1NC(Nc2ccccn2)=N/C1=C\c1ccc2c(c1)OCO2 | 0.22 | 0.2 | > 20 | 0.072 | 0.044 | 0.053 | 1.7 | 0.31 | 0.033 | 0.51 | -18.3 | – | – | 5.5 | 0.48 | 0.13 | > 20 | – | –
14 | CN1CCN(c2ccc(NC3=N/C(=C\c4ccc5c(c4)OCO5)C(=O)N3)cc2)CC1 | 0.035 | – | – | 0.023 | 0.012 | 0.016 | 0.12 | 0.025 | 0.05 | 0.8 | -14.5 | – | 7.48 | 24.9 | 1.1 | 1.2 | > 20 | Non-Toxic | –
